Test results published in PMC10321483 (Chemical Science, 2023).
Values joined by “and” are separate entries in the source; they are usually repeats but may differ in a detail not shown here. Equal entries are not always repeated. Where two headings read alike, the source gives them in different places.

Assays:
LdtMt2 [1] = target: T1, LdtMt2 (Mycobacterium tuberculosis, UniProt I6Y9J2); test: biochemical; format: biochemical; parameters: made in house; host or cells: E. coli
BlaC = target: T2, BlaC (Mycobacterium tuberculosis, UniProt P9WKD3); test: BlaC fluorogenic inhibition assay with FC5 (dose-response); format: biochemical
T2 construct: made in house; host or cells: E. coli
T2 sequence (P9WKD3 35-307): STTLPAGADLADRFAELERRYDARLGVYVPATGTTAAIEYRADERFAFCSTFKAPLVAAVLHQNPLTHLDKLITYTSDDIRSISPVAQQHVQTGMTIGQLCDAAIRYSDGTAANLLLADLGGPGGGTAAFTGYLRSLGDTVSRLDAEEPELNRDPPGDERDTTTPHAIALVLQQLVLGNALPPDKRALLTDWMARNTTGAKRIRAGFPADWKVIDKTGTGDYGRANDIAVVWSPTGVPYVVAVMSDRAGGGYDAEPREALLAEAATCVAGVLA
Method: Two types of controls were used. […] In control 2, the BlaC mixture was substituted with the assay buffer. This mixture was incubated for 30 minutes at room temperature without shaking. […] Data were analysed using ActivityBase (IDBS).

LdtMt2 [2] = target: T1, LdtMt2; test: biochemical; format: binding; parameters: made in house; host or cells: E. coli
Method: LdtMt2 (5 μM) was incubated with the inhibitor (500 μM) in assay buffer (50 mM tris pH 7.5) for 30 minutes at room temperature in 96-well white PCR plates (25 μL final volume, Starlab). SYPRO Orange (final concentration 6×, according to manufacturer's definition, Invitrogen) was then added and the plate was sealed using a transparent plastic film (Polyolefin StarSeal, Starlab). Fluorescence was monitored (with λex = 492 nm and λem = 610 nm) using a CFX96 Touch Real-Time PCR Detection System (Bio-Rad), while the temperature was increased from 20 to 95 °C in increments of 0.2 °C. Melting temperatures (Tms) were determined using the CFX Maestro Software (Bio-Rad).

LdtMt2 [3] = target: T1, LdtMt2; test: Rate constant of covalent target inactivation (kinact/KI), endpoint competition assay with probe 2; format: biochemical; parameters: made in house; host or cells: E. coli; settings: from kobs, LdtMt2 100 nM, probe 2 100 nM to 10 μM
[4] = Table S4 HTS validation, 30 minutes inhibitor pre-incubation, n=6, read-out: pIC50 LdtMt2 (mean ± SD) (converted)
[5] = Table S3 tool compounds, 10 min incubation, 2.5 nM BlaC, 2.5 µM FC5, n=4, read-out: pIC50 BlaC (mean ± SD) (converted)
[6] = Table S4 HTS validation, 30 minutes inhibitor pre-incubation, n=8, read-out: pIC50 BlaC (mean ± SD) (converted)
[7] = Table S3 tool compounds, 10 min incubation, 2.5 nM BlaC, 2.5 µM FC5, n=4
[8] = Table S4 HTS validation, 30 minutes inhibitor pre-incubation, n=6
[9] = Table S5 HTS hits, 30 minute inhibitor pre-incubation, two independent repeats

T1 sequence (I6Y9J2 56-408): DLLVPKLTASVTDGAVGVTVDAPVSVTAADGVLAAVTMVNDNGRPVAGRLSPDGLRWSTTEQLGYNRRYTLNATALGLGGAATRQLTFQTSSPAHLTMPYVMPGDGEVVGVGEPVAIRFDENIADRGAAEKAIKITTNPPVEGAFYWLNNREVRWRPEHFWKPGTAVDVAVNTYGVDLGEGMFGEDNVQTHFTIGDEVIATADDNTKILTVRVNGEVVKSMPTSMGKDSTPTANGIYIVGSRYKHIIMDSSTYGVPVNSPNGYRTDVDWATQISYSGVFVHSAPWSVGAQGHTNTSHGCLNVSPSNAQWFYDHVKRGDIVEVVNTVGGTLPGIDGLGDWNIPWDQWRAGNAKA

Structure (SMILES)	IC50 (LdtMt2 [1]; [4]) [µM]	IC50 (LdtMt2 [1]; pIC50 LdtMt2 (mean ± SD))	IC50 (BlaC; [5]) [µM]	IC50 (BlaC; [6]) [µM]	further results
Cc1ccc(C=CC(=O)N2CC(=O)Nc3ccccc32)o1 [Compound 10]					LE (ligand efficiency) (LdtMt2 [1]): 0.54
CC1(C)S[C@@H]2[C@H](NC(=O)[C@H](C(=O)O)c3ccsc3)C(=O)N2[C@H]1C(=O)O [Ticarcillin, reference compound]	44.7	> 100 µM	11.7	14.5	
C[C@@H](O)[C@H]1C(=O)N2C(C(=O)[O-])=C(SC3Cn4cnc[n+]4C3)[C@H](C)[C@H]12 (stereo partly drawn) [Biapenem, reference compound]	2.88	79.4 µM	3.09	0.479	
CC(=N)N1CC[C@H](SC2=C(C(=O)O)N3C(=O)[C@H]([C@@H](C)O)[C@H]3C2)C1 [Panipenem, reference compound]	1.23	0.316 µM	0.166	0.0933	
CC(C)(O/N=C(\C(=O)N[C@@H]1C(=O)N2C(C(=O)[O-])=C(C[n+]3ccccc3)CS[C@H]12)c1csc(N)n1)C(=O)O [Ceftazidime]		> 100 µM	39.8	12	
O=C(NC1CCNCC1)[C@@H]1CC[C@@H]2CN1C(=O)N2OS(=O)(=O)O [Relebactam]		> 100 µM	33.1	3.98	
CCC(C)SSc1ncc[nH]1 (stereo not drawn) [PX-12, reference compound]					pIC50 LdtMt2 (mean ± SD) (LdtMt2 [1]): 5.9 ± 0.01 and 6.09 ± 0.03; pIC50 BlaC (mean ± SD) (BlaC; [7]): < 4.0
C[C@@H](O)[C@H]1C(=O)N2C(C(=O)O)=C([C@H]3CCCO3)S[C@H]12 [Faropenem]			0.447	0.468	
C[C@@H](O)[C@H]1C(=O)N2C(C(=O)O)=C(S[C@H]3CC[S@@+]([O-])C3)S[C@H]12 [Sulopenem, reference compound]					pIC50 LdtMt2 (mean ± SD) (LdtMt2 [1]): 6.2 ± 0.03; pIC50 LdtMt2 (mean ± SD) (LdtMt2 [1]; [8]): 6.35 ± 0.02; pIC50 BlaC (mean ± SD) (BlaC; [7]): 6.60 ± 0.12; pIC50 BlaC (mean ± SD) (BlaC; Table S4 HTS validation, 30 minutes inhibitor pre-incubation, n=8): 6.86 ± 0.02
N#Cn1c(N2CCSCC2)nc2ccccc21 [Compound 27]					LE (ligand efficiency) (LdtMt2 [1]): 0.66; ΔTm: difference in melting point of LdtMt2 relative to unreacted LdtMt2 (43.8 °C) (LdtMt2 [2]): -1.3; Tm: melting point of LdtMt2 after pre-incubation with the compound (LdtMt2 [2]; pH 7.5, in °C (unit assumed)): 42.5 ± 0.09; pIC50 BlaC (BlaC; [9]): < 4.0
CN(C)c1cc[n+](C#N)cc1 [Compound 43, 1-cyano-4-dimethylaminopyridinium tetrafluoroborate, reference compound]					IC50 (LdtMt2 [1]; pIC50 LdtMt2): 5.01 µM
CC1(C)S[C@@H]2[C@H](NC(=O)C(C(=O)O)c3ccccc3)C(=O)N2[C@H]1C(=O)O (stereo partly drawn) [Carbenicillin, reference compound]		> 100 µM	> 100		
Cc1onc(-c2ccccc2)c1C(=O)N[C@@H]1C(=O)N2[C@@H]1SC(C)(C)[C@@H]2C(=O)O [Oxacillin, reference compound]	6.03	63.1 µM	0.158	0.0676	
C[C@@H](O)[C@H]1C(=O)N2C(C(=O)O)=C(S[C@@H]3CN[C@H](CNS(N)(=O)=O)C3)[C@H](C)[C@H]12 [Doripenem, reference compound]		5.01 µM and 1.7 µM	0.0417	0.0141	
Cn1c(SCC2=C(C(=O)O)N3C(=O)[C@@H](NC(=O)COc4ccccc4)[C@H]3SC2)n[nH]c1=O [Compound 19]					LE (ligand efficiency) (LdtMt2 [1]; Table S5, for LdtMt2): 0.35; IC50 (LdtMt2 [1]; Table S5 HTS hits, 30 minute inhibitor pre-incubation, two independent repeats, read-out: pIC50 LdtMt2 (converted)): 2.4 µM and 2.4 to 2.82 µM; Tm: melting point of LdtMt2 after pre-incubation with the compound (LdtMt2 [2]; 5 µM LdtMt2, 500 µM inhibitor, SYPRO Orange, 50 mM Tris pH 7.5): 42.9 ± 0.09 °C; ΔTm at 500 µM (LdtMt2 [2]; read-out: ΔTm: difference in melting point of LdtMt2 relative to unreacted LdtMt2 (43.8 °C)): -0.9 °C; IC50 (BlaC; Table S5 HTS hits, 30 minute inhibitor pre-incubation, two independent repeats, read-out: pIC50 BlaC (converted)): > 100 µM
N#CSc1ccc([N+](=O)[O-])c(C(=O)O)c1 [Compound 44, 2-nitro-5-thiocyanobenzoic acid, reference compound]					IC50 (LdtMt2 [1]; Table S10 known cyanating compounds, read-out: pIC50 LdtMt2 (converted)): 1.45 µM
Cc1onc(-c2c(F)cccc2Cl)c1C(=O)N[C@@H]1C(=O)N2[C@@H]1SC(C)(C)[C@@H]2C(=O)O [Flucloxacillin, reference compound]	1.05	25.1 µM	0.135	0.0776	

Structure (SMILES)	IC50 (LdtMt2 [1]; [4]) [µM]	IC50 (LdtMt2 [1]; pIC50 LdtMt2 (mean ± SD))	IC50 (BlaC; [5]) [µM]	IC50 (BlaC; [6]) [µM]	further results
Cc1ccccc1NC(=O)C=CC(N)=O [Compound 14]					LE (ligand efficiency) (LdtMt2 [1]): 0.75; ΔTm: difference in melting point of LdtMt2 relative to unreacted LdtMt2 (43.8 °C) (LdtMt2 [2]): +1.1; Tm: melting point of LdtMt2 after pre-incubation with the compound (LdtMt2 [2]; pH 7.5, in °C (unit assumed)): 44.9 ± 0.09; pIC50 BlaC (BlaC; [9]): < 4.0
N#Cn1ccnc1 [Compound 41, reference compound]					pIC50 LdtMt2 (LdtMt2 [1]): 6.54 ± 0.01
N#Cn1nnc2ccccc21 [Compound 42, reference compound]					pIC50 LdtMt2 (LdtMt2 [1]): 6.02 ± 0.05
O=C1OC2(c3ccc(O)cc3Oc3cc(OS(=O)(=O)c4ccc([N+](=O)[O-])cc4[N+](=O)[O-])ccc32)c2ccccc21 (stereo not drawn) [probe 2, reference compound]					(kinact/KI)probe (LdtMt2 [3]): 39.8 M⁻¹ s⁻¹
CNC(C)C(=O)NC1CCN(c2ccc(N3CCCC3)cc2C#N)C1 (stereo not drawn) [Compound 38]					LE (ligand efficiency) (LdtMt2 [1]): 0.45; ΔTm: difference in melting point of LdtMt2 relative to unreacted LdtMt2 (43.8 °C) (LdtMt2 [2]): -1.0; Tm: melting point of LdtMt2 after pre-incubation with the compound (LdtMt2 [2]; pH 7.5, in °C (unit assumed)): 42.8 ± 0.00; pIC50 BlaC (BlaC; [9]): < 4.0
N#Cn1c(-c2ccncc2)nc2ccc(-c3cccnc3)cc21 [Compound 35]					LE (ligand efficiency) (LdtMt2 [1]): 0.49; ΔTm: difference in melting point of LdtMt2 relative to unreacted LdtMt2 (43.8 °C) (LdtMt2 [2]): -0.9; Tm: melting point of LdtMt2 after pre-incubation with the compound (LdtMt2 [2]; pH 7.5, in °C (unit assumed)): 42.9 ± 0.34
O=C1C=CC(=O)N1 [Maleimide, reference compound]		3.98 µM and 2.24 µM			IC50 (BlaC; pIC50 BlaC (mean ± SD), Table S3 tool compounds, 10 min incubation, 2.5 nM BlaC, 2.5 µM FC5, n=4): > 100 µM
O=C(NNC(=O)[C@@H]1CC[C@@H]2CN1C(=O)N2OS(=O)(=O)O)[C@@H]1CCCNC1 [Zidebactam, reference compound]	13.2	100 µM	70.8	7.24	
O=c1c2ccccc2[se]n1-c1ccccc1 [Ebselen]	0.214		1.51	0.302	
CO/N=C(\C(=O)N[C@@H]1C(=O)N2C(C(=O)O)=C(COC(C)=O)CS[C@H]12)c1csc(N)n1 [Cefotaxime, reference compound]		> 100 µM	> 100		
N#Cn1c(N2CCOCC2)nc2ccccc21 [Compound 28]					LE (ligand efficiency) (LdtMt2 [1]): 0.66; ΔTm: difference in melting point of LdtMt2 relative to unreacted LdtMt2 (43.8 °C) (LdtMt2 [2]): -1.5; Tm: melting point of LdtMt2 after pre-incubation with the compound (LdtMt2 [2]; pH 7.5, in °C (unit assumed)): 42.3 ± 0.09; pIC50 BlaC (BlaC; [9]): < 4.0
CN(C)C(=S)SSC(=S)N(C)C [Thiram, reference compound]	0.17	0.158 µM	> 100		
C[C@@H](O)[C@H]1C(=O)N2C(C(=O)O)=C(S[C@@H]3CN[C@H](C(=O)N(C)C)C3)[C@H](C)[C@H]12 [Meropenem, reference compound]	1.35	10 µM	0.141	0.0407	
CO/N=C(\C(=O)N[C@@H]1C(=O)N2C(C(=O)O)=C(CSC(=O)c3ccco3)CS[C@H]12)c1csc(N)n1 [Ceftiofur, reference compound]		> 100 µM	> 100		
O=[Se](O)c1ccccc1 [Benzeneseleninic acid, reference compound]	3.55	10 µM	> 100		
C[C@@H](O)[C@H]1C(=O)N2C(C(=O)O)=C(S[C@@H]3CN[C@H](C(=O)Nc4cccc(C(=O)O)c4)C3)[C@H](C)[C@H]12 [Ertapenem, reference compound]	0.776	1.58 µM	0.178	0.0676	
NC(=O)CI [Iodoacetamide, reference compound]					pIC50 LdtMt2 (mean ± SD) (LdtMt2 [1]): 5.8 ± 0.03; pIC50 LdtMt2 (mean ± SD) (LdtMt2 [1]; [8]): 6.05 ± 0.03; pIC50 BlaC (mean ± SD) (BlaC; [7]): < 4.0
